Test results published in patent US6706740B2, “Fungicidal heterocyclic aromatic amides and their compositions, methods of use and preparation” (Dow AgroSciences LLC, priority 1999, dated 2004).
Where two headings read alike, the source gives them in different places.

Experiments:
[1] = tested on: Phytophthora infestans—PHYTIN; assay: whole plant or invertebrate; format: in vivo; details: Phytophthora, in Solanum lycopersicum, 24 h, read-out: PHYTIN in vivo 1 Day Protectant
[2] = tested on: Phytophthora infestans (PHYTIN); assay: microbe, parasite or virus in culture; format: cell-based; details: Phytophthora infestans, read-out: PHYTIN in vitro Growth Inhibition
[3] = tested on: Erysiphe graminis—ERYSGT; assay: Powdery Mildew of Wheat, in vivo whole plant, 24 Hour Protectant; details: for pest or weed control at 100 ppm: Erysiphe, control of fungal infection vs untreated plants, read-out: ERYSGT in vivo 1 Day Protectant
[4] = tested on: Ustilago maydis (USTIMA); assay: microbe, parasite or virus in culture; format: cell-based; details: Mycosarcoma maydis, read-out: USTIMA in vitro Growth Inhibition
[5] = tested on: Stagonospora nodorum (Leptosphaeria nodorum—LEPTNO); assay: In vitro fungal growth inhibition, Stagonospora nodorum (LEPTNO); format: cell-based; details: Leptosphaeria, read-out: LEPTNO in vitro Growth Inhibition
[6] = tested on: Puccinia recondita—PUCCRT; assay: Brown Rust of Wheat, in vivo whole plant, 24 Hour Protectant; details: for pest or weed control at 100 ppm: Puccinia, control of fungal infection vs untreated plants, read-out: PUCCRT in vivo 1 Day Protectant
[7] = tested on: Magnaporthe grisea (Pyricularia oryzae—PYRIOR); assay: microbe, parasite or virus in culture; format: cell-based; details: Pyricularia oryzae, read-out: PYRIOR in vitro Growth Inhibition
[8] = tested on: Leptosphaeria nodorum—LEPTNO; assay: Glume Blotch of Wheat, in vivo whole plant, 24 Hour Protectant; details: for pest or weed control at 100 ppm: Leptosphaeria, control of fungal infection vs untreated plants, read-out: LEPTNO in vivo 1 Day Protectant
[9] = tested on: Mycosphaerella graminicola (Septoria tritici—SEPTTR); assay: In vitro fungal growth inhibition, Mycosphaerella graminicola (SEPTTR); format: cell-based; details: Zymoseptoria tritici, read-out: SEPTTR in vitro Growth Inhibition
[10] = tested on: Septoria tritici—SEPTTR; assay: Leaf Blotch of Wheat, in vivo whole plant, 24 Hour Protectant; details: for pest or weed control at 100 ppm: Zymoseptoria tritici, 24 h, control of fungal infection vs untreated plants, read-out: SEPTTR in vivo 1 Day Protectant
[11] = tested on: Rhizoctonia solani (RHIZSO); assay: microbe, parasite or virus in culture; format: cell-based; details: Rhizoctonia solani, read-out: RHIZSO in vitro Growth Inhibition
[12] = 100 ppm spray, 24 hour protectant, wheat
[13] = wheat plants sprayed at 100 ppm, inoculated after 24 hours
[14] = 100 ppm spray, wheat, 24 hour protectant, % control of fungal infection vs untreated plants

| SMILES | pest or weed control at 100 ppm [1] | inhibition at 25 ppm [2] | pest or weed control at 100 ppm [3, 12] | inhibition at 25 ppm [4] | melting point | inhibition at 25 ppm ([5]; 25 ppm in growth medium) | pest or weed control at 100 ppm [6, 12] | inhibition at 25 ppm [7] | pest or weed control at 100 ppm [8, 12] | inhibition at 25 ppm ([9]; 25 ppm in growth medium) | pest or weed control at 100 ppm [10, 12] | inhibition at 25 ppm [11] | pest or weed control at 100 ppm [3, 13] | inhibition at 25 ppm ([5]; 25 ppm in the growth medium) | pest or weed control at 100 ppm [6, 13] | pest or weed control at 100 ppm [8, 13] | inhibition at 25 ppm ([9]; 25 ppm in the growth medium) | pest or weed control at 100 ppm [10, 13] | other results |
| --- | --- | --- | --- | --- | --- | --- | --- | --- | --- | --- | --- | --- | --- | --- | --- | --- | --- | --- | --- |
| CC(=O)OC1CCC(NC(=O)c2ncccc2O)CC1 (stereo not drawn) [Compound 209] | < 25% | < 80% | < 25% | < 80% | 123 to 126 °C | < 80% | < 25% | < 80% | < 25% | < 80% | 25 to 74% | < 80% |  |  |  |  |  |  |  |
| COc1ccnc(C(=O)Nc2ccc(Oc3cc(Cl)nc(C(F)(F)F)c3)cc2)c1O [Compound 467] | < 25% | < 80% |  | < 80% | 198 to 201 °C |  |  | < 80% |  |  |  | < 80% | 25 to 74% | > 80% | < 25% | 25 to 74% | < 80% | 25 to 74% |  |
| CCC(=O)Oc1c(OC)ccnc1C(=O)N[C@H]1COC(=O)[C@H](Cc2ccccc2)[C@@H](OC(=O)C(C)C)[C@H](C)OC1=O [Compound 598] | < 25% | < 80% |  | < 80% | 171 to 172 °C | > 80% |  | < 80% |  | > 80% |  | < 80% |  |  |  |  |  |  | ERYSGT in vivo 1 Day Protectant [3, 14]: + +; PUCCRT in vivo 1 Day Protectant [6, 14]: + +; LEPTNO in vivo 1 Day Protectant [8, 14]: + +; SEPTTR in vivo 1 Day Protectant [10, 14]: + + |
| O=C(NCc1ccccc1Cl)c1ncccc1O [Compound 218] | < 25% | > 80% | < 25% | > 80% | 97 to 99 °C | > 80% | < 25% | > 80% | < 25% | < 80% | < 25% | > 80% |  |  |  |  |  |  |  |
| O=C(NC1CCC(O)CC1)c1ncccc1O (stereo not drawn) [Compound 208] | 25 to 74% | < 80% | < 25% | < 80% | 112 to 115 °C | < 80% | 25 to 74% | < 80% | < 25% | < 80% | < 25% | < 80% |  |  |  |  |  |  |  |
| CC(C)C(=O)O[C@H]1[C@H](C)OC(=O)[C@@H](NC(=O)c2cnn(C)c2O)COC(=O)[C@@H]1Cc1ccccc1 [Compound 556] | < 25% | > 80% |  | < 80% | 195 °C (dec.) |  |  | < 80% |  |  |  | < 80% | < 25% | < 80% | 25 to 74% | 25 to 74% | < 80% | < 25% |  |
